Test results as given in patent publication US4769386A, “Imidazolylthioalkenoic acids and -alkenols and leukotriene antagonistic composition containing them” (Smithkline Beckman Corporation, priority 1986, dated 1988).
Where a name gives a salt, the structure may show the parent alone. Read-outs that look alike come from different tables or passages of the source.

Molecular target: T1, leukotriene induced contraction of guinea pig tracheal tissues (LTD4) (Cavia porcellus, UniProt Q2NNR5)
T1 construct: from tissue; host or cells: guinea pig (adult male albino Hartley strain) tracheal spiral strips
T1 sequence (Q2NNR5 1-340): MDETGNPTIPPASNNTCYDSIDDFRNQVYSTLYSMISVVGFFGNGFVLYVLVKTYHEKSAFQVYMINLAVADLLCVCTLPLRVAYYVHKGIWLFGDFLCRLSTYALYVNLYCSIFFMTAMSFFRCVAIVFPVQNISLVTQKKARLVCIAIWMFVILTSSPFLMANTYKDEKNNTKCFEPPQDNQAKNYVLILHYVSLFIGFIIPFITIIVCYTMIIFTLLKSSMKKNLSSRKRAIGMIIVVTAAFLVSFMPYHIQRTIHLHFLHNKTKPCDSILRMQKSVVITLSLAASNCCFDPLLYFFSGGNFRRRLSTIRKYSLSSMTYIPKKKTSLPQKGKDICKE
Assay: leukotriene (LTD4) induced contraction of guinea pig tracheal spiral strips in vitro, leukotriene antagonist activity
Assay type: cell-based, guinea pig (adult male albino Hartley strain)
Settings: for In Vitro -Log KB: 30 min
Description: The leukotriene antagonist activity of the compounds of this invention is measured by the ability of the compounds to inhibit the leukotriene induced contraction of guinea pig tracheal tissues in vitro. The following methodology was employed:
In vitro: Guinea pig (adult male albino Hartley strain) tracheal spiral strips of approximate dimensions 2 to 3 mm cross-sectional width and 3.5 cm length were bathed in modified Krebs buffer in jacketed 10 ml tissue bath and continuously aerated with 95% O2 /5% CO2. The tissues were connected via silk suture to force displacement transducers for recording isometric tension. The tissues were equilibrated for 1 hr., pretreated for 15 minutes with meclofenamic acid (1 μM) to remove intrinsic prostaglandin responses, and then pretreated for an additional 30 minutes with either the test compound or vehicle control. A cumulative concentration-response curve for LTD4 on triplicate tissues was generated by successive increases in the bath concentration of the LTD4. In order to minimize intertissue variability, the contractions elicited by LTD4 were standardized as a percentage of the maximum response obtained to a reference agonist, carbachol […].
Calculations: The averages of the triplicate LTD4 concentration-response curves both in the presence and absence of the test compound were plotted on log graph paper. The concentration of LTD4 needed to elicit 30% of the contraction elicited by carbachol was measured and defined as the EC30. The -log KB value for the test compound was determined by the following equations:
2. KB = concentration of test compound/(X-1)

[1] = antagonism of LTD4 contraction, guinea pig trachea, EC30 based (30% of carbachol contraction), meclofenamic acid 1 μM, test compound 30 min pretreatment, KB = concentration of test compound/(X-1), read-out: In Vitro -Log KB (converted)
[2] = antagonism of LTD4 contraction, guinea pig trachea, EC30 based (30% of carbachol contraction), meclofenamic acid 1 μM, test compound 30 min pretreatment, KB = concentration of test compound/(X-1)
[3] = method as for the table (LTD4, guinea pig trachea), read-out: -log KB value (converted)

Kb [1] | SMILES | further results
126 nM | CCCCCCCCCCCC/C=C\[C@H](Sc1nc(C)c(C(=O)O)n1C)[C@H](O)CCC(=O)O (relative stereo) [4-Hydroxy-5-(1,4-dimethyl-5-carboxy-2-imidazolylthio)-6(Z)-nonadecenoic acid] | 
794 nM | CCCCCCCCCCCC/C=C\[C@H](Sc1nc(CC(=O)O)cn1C)[C@H](O)CCC(=O)O (relative stereo) [4-Hydroxy-5-(1-methyl-4-carboxymethyl-2-imidazolylthio)-6(Z)-nonadecenoic acid] | 
631 nM | CCCCCCCCCCCC/C=C\[C@H](Sc1nc(C)c(CC(N)=O)n1C)[C@H](O)CCC(=O)O (relative stereo) [4-Hydroxy-5-(5-Aminocarbonylmethyl-1,4-dimethyl-2-imidazolylthio)-6(Z)-nonadecenoic Acid] | 
316 nM | CCCCCCCCCCCC/C=C\[C@H](Sc1nc(CCC)c(C(=O)O)n1C)[C@H](O)CCC(=O)O (relative stereo) [4-Hydroxy-5-(5-carboxy-1-methyl-4-propyl-2-imidazolylthio)-6(Z)-nonadecenoic Acid] | 
200 nM | CCCCCCCCCCCC/C=C\[C@H](Sc1nc(CC)c(C(=O)O)n1C)[C@H](O)CCC(=O)O (relative stereo) [4-Hydroxy-5-(5-carboxy-4-ethyl-1-methyl-2-imidazolylthio)-6-(Z)-nonadecenoic Acid] | 
1260 nM | CCCCCCCCCCCC/C=C\[C@H](Sc1nc(C(C)C)c(C(=O)O)n1C)[C@H](O)CCC(=O)O (relative stereo) [4-Hydroxy-5-(5-carboxy-4-isopropyl-1-methyl-2-imidazolylthio)-6(Z)-nonadecenoic Acid] | 
398 nM | CCCCCCCCCCCC/C=C\[C@H](Sc1nc(C)c(CC(=O)O)n1C)[C@H](O)CCC(=O)O (relative stereo) [4-Hydroxy-5-(5-carboxymethyl-1,4-dimethyl-2-imidazolylthio)-6(Z)-nonadecenoic Acid] | 
1260 nM | CCCCCCCCCCCC/C=C\[C@H](Sc1nc(C)c(CCC(=O)O)n1C)[C@H](O)CCC(=O)O (relative stereo) [4-Hydroxy-5-[5-(2-carboxyethyl)-1,4-dimethyl-2-imidazolylthio]-6(Z)-nonadecenoic Acid] | 
5010 nM | C=CCn1ccnc1S[C@@H](/C=C\CCCCCCCCCCCC)[C@H](O)CCC(=O)O (relative stereo) [Formula (III), R1 CH2 =CHCH2, R2 H, R3 H, 4-Hydroxy-5-(1-allyl-2-imidazolylthio)-6(Z)-nonadecenoic acid] | 
5010 nM | CCCCCCCCCCCC/C=C\[C@H](Sc1nccn1CC)[C@H](O)CCC(=O)O (relative stereo) [Formula (III), R1 CH3 CH2, R2 H, R3 H, 4-Hydroxy-5-(1-ethyl-2-imidazolylthio)-6(Z)-nonadecenoic acid, sodium salt] | 
158 nM | CCCCCCCCCCCC/C=C\[C@H](Sc1ncc(C(=O)O)n1C)[C@H](O)CCC(=O)O (relative stereo) [Formula (III), R1 CH3, R2 --CO2 H, R3 H, 4-Hydroxy-5-(1-methyl-5-carboxy-2-imidazolylthio)-6(Z)-nonadecenoic acid] | 
3980 nM | CCCCCCCCCCCC/C=C\[C@H](Sc1ncc(C(N)=O)n1C)[C@H](O)CCC(=O)O (relative stereo) [Formula (III), R1 CH3, R2 --CONH2, R3 H, 4-Hydroxy-5-(1-methyl-5-carboxamido-2-imidazolylthio)-6(Z)-nonadecenoic acid] | 
2510 nM | CCCCCCCCCCCC/C=C\[C@H](Sc1nc(C)c(C)n1C)[C@H](O)CCC(=O)O (relative stereo) [Formula (III), R1 CH3, R2 CH3, R3 CH3, 4-Hydroxy-5-(1,4,5-trimethyl-2-imidazolylthio)-6(Z)-nonadecenoic acid] | 
1260 nM | CCCCCCCCCCCC/C=C\[C@H](Sc1nccn1C)[C@H](O)CCC(=O)O (relative stereo) [Formula (III), R1 CH3, R2 H, R3 H, 4-Hydroxy-5-(1-methyl-2-imidazolylthio)-6(Z)-nonadecenoic acid] | 
2000 nM | CCCCCCCCCCCC/C=C\[C@H](Sc1nc(C(=O)O)c[nH]1)[C@H](O)CCC(=O)O (relative stereo) [Formula (III), R1 H, R2 --CO2 H, R3 H, 4-Hydroxy-5-[4(5)-carboxy-2-imidazolylthio]-6(Z)-nonadecenoate acid] | 
1000 nM | CCCCCCCCCCCC/C=C\[C@H](Sc1nccn1C)[C@H](O)CCCC(=O)O (relative stereo) [Formula (IV), R1 CH3, R2 H, R3 H, 5-Hydroxy-6-(1-methyl-2-imidazolylthio)-7(Z)-eicosenoic acid] | 
 | CCCCCCCCCCCC/C=C\C(Sc1nc(C)c(C(=O)O)n1C)C(O)CCC(=O)O (single isomer, unassigned) [Formula (III), R1 ^(a) CH3, R2 --CO2 H, R3 CH3 (first isomer line), 4-Hydroxy-5-(1,4-dimethyl-5-carboxy-2-imidazolylthio)-6(Z)-nonadecenoic acid] | In Vitro -Log KB [2]: 6.9
 | CCCCCCCCCCCC/C=C\C(Sc1nc(C)c(C(=O)O)n1C)C(O)CCC(=O)O (single isomer, unassigned) [Formula (III), R1 ^(a) CH3, R2 --CO2 H, R3 CH3 (second isomer line), 4-Hydroxy-5-(1,4-dimethyl-5-carboxy-2-imidazolylthio)-6(Z)-nonadecenoic acid] | In Vitro -Log KB [2]: 6.8
1580 nM | CCCCCCCCCCCCC#CC(Sc1nc(C)c(C(=O)O)n1C)C(O)CCC(=O)O (stereo not drawn) [4-Hydroxy-5-(1,4-dimethyl-5-carboxy-2-imidazolylthio)-6-nonadecynoic acid] | 
316 nM | CCCCCCCCCCCC/C=C\C(CCCC(=O)O)Sc1ncc(C(=O)O)n1C (stereo not drawn) [5-(1-methyl-5-carboxy-2-imidazolylthio)-6(Z)-nonadecenoic acid] | 
 | CC(C)=CCCCCCCCCC/C=C\C(Sc1nc(C)c(C(=O)O)n1C)C(O)CCC(=O)O (stereo not drawn) [Example 25, 4-Hydroxy-5-(5-carboxy-1,4-dimethyl-2-imidazolylthio)-18-methyl-6(Z),17-nonadecadienoic Acid] | Kb [3]: 31.6 nM
 | Cc1nc(SC(/C=C\CCCCCCCCc2ccccc2)C(O)CCC(=O)O)n(C)c1C(=O)O (stereo not drawn) [Example 26, 4-Hydroxy-5-(5-carboxy-1,4-dimethyl-2-imidazolylthio)-15-phenyl-6(Z)-pentadecenoic Acid] | Kb [3]: 251 nM
200 nM | CCCCCCCCCCCC/C=C\C(Sc1ncn(C)c1C(=O)O)C(O)CCC(=O)O (stereo not drawn) [Formula (V), R4 CH3, R5 H, R6 --CO2 H, 4-Hydroxy-5-(1-methyl-5-carboxy-4-imidazolylthio)-6(Z)-nonadecenoic acid] | 
2000 nM | CCCCCCCCCCCC/C=C\C(Sc1cn(C)cn1)C(O)CCC(=O)O (stereo not drawn) [Formula (V), R4 ^(b) CH3, R5 H, R6 H, 4-Hydroxy-5-(1-methyl-4-imidazolylthio)-6(Z)-nonadecenoic acid, sodium salt] | 
